Here are results for ten compounds from patent publication US20040053822A1, “Inducing cellular immune responses to mage2/3 using peptide and nucleic acid compositions” (priority 2002, published 2004).

The IC50 is the concentration that inhibits the measured activity by half.

Some results are limits rather than exact numbers.

Assay [1] has as its target HLA-A*0201 (Homo sapiens, UniProt P04439, D140Y/D185E/D98H/E176V/E277Q/G131W/G231S/I119V/I121R/I166T/I218V/L300P/L318F/N151K/N90K/P208A/P217A/Q86G/Q94H/R138H/R169H/T345S). In words: Purified HLA class I peptide binding assay, A*0201. Particulars: binding affinity, A2 supermotif peptides and analogs.
Assay [2] addresses HLA-A*0206 (Homo sapiens, UniProt P04439, D140Y/D185E/D98H/E176V/E277Q/F33Y/G131W/G231S/I119V/I121R/I166T/I218V/L300P/L318F/N151K/N90K/P208A/P217A/Q86G/Q94H/R138H/R169H/T345S). Put plainly: Purified HLA class I peptide binding assay, A*0206. As to conditions: binding affinity, A2 supermotif peptides and analogs.
Assay [3] deals with HLA-A*6802 (Homo sapiens, UniProt P04439, A269V/D140Y/D185E/E176V/E277Q/E87N/F33Y/G231S/I121R/I166T/I218V/L180W/L300P/L318F/N151K/P208A/P217A/Q86R/R138H/R169H/S129P/T345S/V36M). In words: Purified HLA class I peptide binding assay, A*6802. As to conditions: binding affinity, A2 supermotif peptides and analogs.
The test system of assay [4] is 0.221A2.1 cell line (peptide-loaded target). Put plainly: Primary CTL induction from normal donor PBMC, 51Cr release on peptide-pulsed targets. The format is cell-based, human. Particulars: number of donors positive over the total number of donors tested. As for the experimental part: (§1) The melanoma cells were treated with 100 U/ml IFNγ (Genzyme) for 48 hours at 37° C. before use as targets in the ^51Cr release and in situ IFNγ assays.
The monocytes were purified by plating 10×10^6 PBMC/well in a 6-well plate. After 2 hours at 37° C., the non-adherent cells were removed by gently shaking the plates and aspirating the supernatants. The wells were washed a total of three times with 3 ml RPMI to remove most of the non-adherent and loosely adherent cells. Three ml of complete medium containing 50 ng/ml of GM-CSF and 1,000 U/ml of IL4 were then added to each well. DC were used for CTL induction cultures following 7 days of culture.
Induction of CTL with DC and Peptide: CD8+ T-cells were isolated by positive selection with Dynal immunomagnetic beads (Dynabeads® M-450) and the detacha-bead® reagent. Typically about 200-250×10^6 PBMC were processed to obtain 24×10^6 CD8^+ T-cells (enough for a 48-well plate culture). Briefly, the PBMCs were thawed in RPMI with 30 μg/ml DNAse, washed once with PBS containing 1% human AB serum and resuspended in PBS/1% AB serum at a concentration of 20×10^6 cells/ml. The magnetic beads were washed 3 times with PBS/AB serum, added to the cells (140 μl beads/20×10^6 cells) and incubated for 1 hour at 4° C. with continuous mixing. The beads and cells were washed 4× with PBS/AB serum to remove the nonadherent cells and resuspended at 100×10^6 cells/ml (based on the original cell number) in PBS/AB serum containing 100 μ/ml detacha-bead® reagent and 30 μg/ml DNAse. The mixture is incubated for 1 hour at room temperature with continuous mixing. The beads were washed again with PBS/AB/DNAse to collect the CD8+ T-cells. The DC were collected and centrifuged at 1300 rpm for 5-7 minutes, washed once with PBS with 1% BSA, counted and pulsed with 40 μg/ml of peptide at a cell concentration of 1-2×10^6/ml in the presence of 3 μg/ml β2- microglobulin for 4 hours at 20° C. The DC were then irradiated (4,200 rads), washed 1 time with medium and counted again.
Setting up induction cultures: 0.25 ml cytokine-generated DC (@1×10^5 cells/ml) were co-cultured with 0.25 ml of CD8+ T-cells (@2×10^6 cell/ml) in each well of a 48-well plate in the presence of 10 ng/ml of IL-7. rHuman IL10 was added the next day at a final concentration of 10 ng/ml and rhuman IL2 was added 48 hours later at 10 IU/ml.
Restimulation of the induction cultures with peptide-pulsed adherent cells: Seven and fourteen days after the primary induction the cells were restimulated with peptide-pulsed adherent cells. The PBMCS were thawed and washed twice with RPMI and DNAse. The cells were resuspended at 5×10^6 cells/ml and irradiated at ˜4200 rads. The PBMCs were plated at 2×10^6 in 0.5 ml complete medium per well and incubated for 2 hours at 37° C. The plates were washed twice with RPMI by tapping the plate gently to remove the nonadherent cells and the adherent cells pulsed with 10 μg/ml of peptide in the presence of 3 μg/ml β2 microglobulin in 0.25 ml RPMI/5% AB per well for 2 hours at 37° C. Peptide solution from each well was aspirated and the wells were washed once with RPMI. Most of the media was aspirated from the induction cultures (CD8+ cells) and brought to 0.5 ml with fresh media. The cells were then transferred to the wells containing the peptide-pulsed adherent cells. Twenty four hours later rhuman IL10 was added at a final concentration of 10 ng/ml and rhuman IL2 was added the next day and again 2-3 days later at 50 IU/ml (Tsai et al., Critical Reviews in Immunology 18(l-2):65-75, 1998). Seven days later the cultures were assayed for CTL activity in a ^51Cr release assay. In some experiments the cultures were assayed for peptide-specific recognition in the in situ IFNγ ELISA at the time of the second restimulation followed by assay of endogenous recognition 7 days later. After expansion, activity was measured in both assays for a side by side comparison. […]

In assay [5] the test system is melanoma cell lines (624 mel and 888 mel). Put plainly: Primary CTL induction, 51Cr release on tumor targets (endogenous recognition). The format is cell-based, human. Particulars: number of donors positive over total tested; tumor targets. As to the method:
as §1
Restimulation of the induction cultures with peptide-pulsed adherent cells: Seven and fourteen days after the primary induction the cells were restimulated with peptide-pulsed adherent cells. The PBMCS were thawed and washed twice with RPMI and DNAse. The cells were resuspended at 5×10^6 cells/ml and irradiated at ˜4200 rads. The PBMCs were plated at 2×10^6 in 0.5 ml complete medium per well and incubated for 2 hours at 37° C. The plates were washed twice with RPMI by tapping the plate gently to remove the nonadherent cells and the adherent cells pulsed with 10 μg/ml of peptide in the presence of 3 μg/ml β2 microglobulin in 0.25 ml RPMI/5% AB per well for 2 hours at 37° C. Peptide solution from each well was aspirated and the wells were washed once with RPMI. Most of the media was aspirated from the induction cultures (CD8+ cells) and brought to 0.5 ml with fresh media. The cells were then transferred to the wells containing the peptide-pulsed adherent cells. Twenty four hours later rhuman IL10 was added at a final concentration of 10 ng/ml and rhuman IL2 was added the next day and again 2-3 days later at 50 IU/ml (Tsai et al., Critical Reviews in Immunology 18(l-2):65-75, 1998). Seven days later the cultures were assayed for CTL activity in a ^51Cr release assay. In some experiments the cultures were assayed for peptide-specific recognition in the in situ IFNγ ELISA at the time of the second restimulation followed by assay of endogenous recognition 7 days later. After expansion, activity was measured in both assays for a side by side comparison.
Seven days after the second restimulation, cytotoxicity was determined in a standard (5 hr) ^51Cr release assay by assaying individual wells at a single E:T. Peptide-pulsed targets were prepared by incubating the cells with 10 μg/ml peptide overnight at 37° C.
Adherent target cells were removed from culture flasks with trypsin-EDTA. Target cells were labelled with 200 μCi of ^51Cr sodium chromate (Dupont, Wilmington, Del.) for 1 hour at 37° C. […] Target cells.(100 μl) and 100 μl of effectors were plated in 96 well round-bottom plates and incubated for 5 hours at 37° C. At that time, 100 μl of supernatant were collected from each well and percent lysis was determined according to the formula: [(cpm of the test sample−cpm of the spontaneous ^51Cr release sample)/(cpm of the maximal ^51Cr release sample−cpm of the spontaneous ^51Cr release sample)]×100. Maximum and spontaneous release were determined by incubating the labelled targets with 1% Trition X-100 and media alone, respectively.
CTL Expansion. […] The cells were split if the cell concentration exceeded 1×10^6/ml and the cultures were assayed between days 13 and 15 at E:T ratios of 30, 10, 3 and 1:1 in the ^51Cr release assay or at 1×10^6/ml in the in situ IFNγ assay using the same targets as before the expansion.
The A2-supermotif cross-reactive binding peptides that were selected for further evaluation were tested in the cellular assay for the ability to induce peptide-specific CTL in normal individuals.

The target in assay [6] is HLA-A*0202 (Homo sapiens, UniProt P04439, D140Y/D185E/D98H/E176V/E277Q/G131W/G231S/I119L/I121R/I166T/I218V/L180W/L300P/L318F/N151K/N90K/P208A/P217A/Q67R/Q86G/Q94H/R138H/R169H/T345S). Put plainly: Purified HLA class I peptide binding assay, A*0202. Particulars: binding affinity, A2 supermotif peptides and analogs.
The target of assay [7] is HLA-A*0203 (Homo sapiens, UniProt P04439, A173T/D140Y/D185E/D98H/E277Q/G131W/G231S/I119V/I121R/I166T/I218V/L180W/L300P/L318F/N151K/N90K/P208A/P217A/Q86G/Q94H/R138H/R169H/T345S). In words: Purified HLA class I peptide binding assay, A*0203. As to conditions: binding affinity, A2 supermotif peptides and analogs.

As for `CSCC[C@H](NC(=O)[C@@H](N)CCCCN)C(=O)N[C@@H](C)C(=O)N[C@@H](CCC(=O)O)C(=O)N[C@@H](CC(C)C)C(=O)N[C@H](C(=O)N[C@@H](Cc1c[nH]cn1)C(=O)N[C@@H](Cc1ccccc1)C(=O)N[C@H](C(=O)O)C(C)C)C(C)C`, the concentration for half-maximal inhibition (IC50) in assay [1] stood at 0.026 µM; in assay [2], 0.039 µM; in assay [3] it was 0.17 µM.

On to `CC(C)C[C@H](NC(=O)[C@H](CC(C)C)NC(=O)[C@H](Cc1ccccc1)NC(=O)[C@H](Cc1c[nH]cn1)NC(=O)[C@@H](NC(=O)[C@H](CC(C)C)NC(=O)[C@H](CCC(=O)O)NC(=O)[C@H](C)NC(=O)[C@@H](NC(=O)[C@@H](N)CCCCN)C(C)C)C(C)C)C(=O)O`, for which the “CTL Wild-type” value in assay [4] was 0/1. For the same compound, the “CTL Tumor” value in assay [5] is 0/1^.

With `CC[C@H](C)[C@H](NC(=O)[C@@H](N)CCCCN)C(=O)N[C@@H](Cc1c[nH]c2ccccc12)C(=O)N[C@@H](CCC(=O)O)C(=O)N[C@@H](CCC(=O)O)C(=O)N[C@@H](CC(C)C)C(=O)N[C@@H](CO)C(=O)N[C@@H](CCSC)C(=O)N[C@@H](CC(C)C)C(=O)O`, the half-inhibitory concentration (IC50) was 0.167 µM in assay [1], 0.642 µM in assay [6], 0.175 µM in assay [7] and over 10 µM in assay [3].

With `CC[C@H](C)[C@H](N)C(=O)N[C@@H](CCSC)C(=O)N1CCC[C@H]1C(=O)N[C@@H](CCCCN)C(=O)N[C@@H](C)C(=O)NCC(=O)N[C@@H](CC(C)C)C(=O)N[C@@H](CC(C)C)C(=O)N[C@H](C(=O)N[C@H](C(=O)N[C@H](C(=O)O)C(C)C)[C@@H](C)CC)[C@@H](C)CC`, the “CTL Wild-type” value in assay [4] was 3/4. Moreover, the “CTL Tumor” value in assay [5] is 0/3^.

With `CSCC[C@H](NC(=O)[C@@H](N)CCCCN)C(=O)N[C@H](C(=O)N[C@@H](CCC(=O)O)C(=O)N[C@@H](CC(C)C)C(=O)N[C@H](C(=O)N[C@@H](Cc1c[nH]cn1)C(=O)N[C@@H](Cc1ccccc1)C(=O)N[C@@H](CC(C)C)C(=O)O)C(C)C)C(C)C`, the “CTL Wild-type” value in assay [4] is 1/1. The “CTL Tumor” value in assay [5] is on record as 0/1^.

`CC(C)C[C@H](NC(=O)[C@H](Cc1ccccc1)NC(=O)[C@H](Cc1c[nH]cn1)NC(=O)[C@@H](NC(=O)[C@H](CC(C)C)NC(=O)[C@H](CCC(=O)O)NC(=O)[C@H](C)NC(=O)[C@H](CC(C)C)NC(=O)[C@@H](N)CCCCN)C(C)C)C(=O)O`: the half-maximal inhibitory concentration (IC50) in assay [1] was 0.02 µM; in assay [6], 0.006 µM; in assay [7], 0.0059 µM; in assay [3], 0.4 µM.

On to `CC[C@H](C)[C@H](NC(=O)CNC(=O)[C@H](Cc1ccccc1)NC(=O)[C@@H](NC(=O)[C@@H](N)CC(C)C)C(C)C)C(=O)N[C@@H](CCC(=O)O)C(=O)N[C@H](C(=O)N[C@H](C(=O)N[C@@H](CCC(=O)O)C(=O)N[C@H](C(=O)O)C(C)C)C(C)C)C(C)C`, for which, in assay [4], the “CTL Wild-type” value is given as 4/4. In addition, the “CTL Tumor” value in assay [5] is 0/3^.

With `CSCC[C@H](NC(=O)[C@@H](N)CCCCN)C(=O)N[C@@H](C)C(=O)N[C@@H](CCC(=O)O)C(=O)N[C@@H](CC(C)C)C(=O)N[C@H](C(=O)N[C@@H](Cc1c[nH]cn1)C(=O)N[C@@H](Cc1ccccc1)C(=O)N[C@@H](CC(C)C)C(=O)O)C(C)C`, the half-maximal inhibitory concentration (IC50) in assay [1] turned out to be 0.024 µM; in assay [6], 0.0067 µM; in assay [2] it was 0.026 µM; in assay [3], 0.286 µM.

Take `CSCC[C@H](NC(=O)[C@@H](N)CCCCN)C(=O)N[C@H](C(=O)N[C@@H](CCC(=O)O)C(=O)N[C@@H](CC(C)C)C(=O)N[C@H](C(=O)N[C@@H](Cc1c[nH]cn1)C(=O)N[C@@H](Cc1ccccc1)C(=O)N[C@@H](CC(C)C)C(=O)N[C@@H](CC(C)C)C(=O)N[C@@H](CC(C)C)C(=O)O)C(C)C)C(C)C`: the “CTL Wild-type” value in assay [4] is on record as 1/1. The “CTL Tumor” value in assay [5] is 0/1^.

In the case of `CC(C)C[C@H](NC(=O)[C@H](Cc1ccc(O)cc1)NC(=O)[C@H](CCC(=O)O)NC(=O)[C@H](CO)NC(=O)[C@H](C)NC(=O)[C@@H](N)CCCCN)C(=O)N[C@@H](CCC(N)=O)C(=O)N[C@@H](CC(C)C)C(=O)N[C@H](C(=O)O)C(C)C`, in assay [4], the “CTL Wild-type” value was 2/4. Moreover, in assay [5], the “CTL Tumor” value is reported as 0/2^.
